Reference: PMC10054418, “Eighteen Novel Bioactive Peptides from Monkfish (Lophius litulon) Swim Bladders: Production, Identification, Antioxidant Activity, and Stability” (Marine Drugs, 2023)
Read-outs that look alike come from different tables or passages of the source. Where a SMILES comes first, the peptide text is derived from it.

Columns and labels:
[1] = cited from earlier work
Excerpt: HO· is a kind of strong free radical, which can not only cause lipid peroxidation in vivo but also attack polysaccharides, nucleic acids and other macromolecules, causing serious damage to cells.

[2] = cited from earlier work; remark: listed apart in the source
Excerpt: ABTS^+· is a single oxygen ion radical with an absorption peak at 734 nm, which can be reduced by antioxidants leading to a decrease in absorbance.

[3] = cited from earlier work; remark: listed apart in the source
Excerpt: O2−· reacts with metal ions in the Fenton reaction to form HO· that triggers lipid peroxidation and causes oxidative damage to cells. MSP1, MSP2, MSP8, MSP10 and MSP13 have a strong ability to scavenge O2−· .

[4] = cited from earlier work; remark: listed apart in the source
Excerpt: DPPH· is a very stable radical and is commonly used as a substrate to assess antioxidant activity. MSP7 and MSP8 have a strong hydrogen donating capacity and can reduce stable DPPH·.

pepsin and trypsin = assay: Stability in simulated gastrointestinal (GI) digestion, read out as O2−· scavenging activity; conditions: 2 h of pepsin digestion, peptide 5.0 mg/mL
Protocol: The reaction was initiated by adding 1 mL of phenazine methosulphate (PMS) solution (120 μM) to the reaction mixture. The absorbance was measured at 560 nm against the corresponding blank after incubation for 5 min at 25 °C. The scavenging capacity of the O2−· was calculated using the following equation: O2−·scavengingactivity(%)=[(Ac−As)/Ac]×100%, where Ac is the absorbance without the sample and As is the absorbance with the sample.

H2O2-damaged HepG2 cells = assay: Cytoprotection on H2O2-damaged HepG2 cells (MTT); assay type: cell-based, Human
Protocol: […] Briefly, the HepG2 cells were incubated in a 96-well plate for 24 h. […] After removing peptides, H2O2 was added to the sample, GSH and model groups. After 24 h, the 96-wells were rinsed twice with PBS and used MTT method to determine the cell viability:Cell viability = (ODsample/ODcontrol) × 100%.

[5] = APs from skin (printed after monkfish muscle)
[6] = APs from Spanish mackerel (Scomberomorous niphonius) skin
[7] = APs from seaweed (Eucheuma cottonii)
[8] = APs from Antarctic krill (Euphausia superba)
[9] = APs from tuna cardiac arterial bulbs
[10] = APs from tuna (Katsuwonus pelamis) cardiac arterial bulbs

PSYV [literature AP from loach (Misgurnus anguillicaudatus) meat]
EC50 on HO· ([1]; AP from loach (Misgurnus anguillicaudatus) meat): 2640 µg/mL

YGPM [literature AP from Spanish mackerel skin]
EC50 on HO· [1, 5]: 880 µg/mL | EC50 on ABTS^+· ([2]; APs from monkfish skin as printed): 820 µg/mL | EC50 on O2−· [3, 5]: 730 µg/mL | EC50 on DPPH· [4, 6]: 720 µg/mL

GHHAAA [literature AP from tuna milt (also printed under tuna roes)]
EC50 on ABTS^+· ([2]; APs from tuna milt): 1120 µg/mL

FYKA [literature AP from seaweed (Eucheuma cottonii)]
EC50 on O2−· ([3]; APs from seaweed): 1910 µg/mL | EC50 on DPPH· [4, 7]: 2560 µg/mL

PYGAKG [literature AP from Spanish mackerel (Scomberomorous niphonius) skin]
EC50 on DPPH· [4, 6]: 3020 µg/mL

IEEEQ [literature AP from red stingray (Dasyatis akajei) cartilages]
EC50 on ABTS^+· ([2]; APs from red stingray (Dasyatis akajei) cartilages): 180 µg/mL

EDIVCW [literature AP from monkfish muscle]
EC50 on HO· ([1]; APs from monkfish muscle): 610 µg/mL | EC50 on O2−· ([3]; APs from monkfish muscle): 760 µg/mL | EC50 on DPPH· ([4]; APs from monkfish muscle): 390 µg/mL

N=C(N)NCCC[C@H](NC(=O)CN)C(=O)N[C@@H](Cc1c[nH]c2ccccc12)C(=O)O [MSP7, Gly-Arg-Trp] (H-Gly-Arg-Trp-OH)
Declined percentage of O2−· scavenging activity, Treated with Pepsin (pepsin and trypsin): −24.34%

VEKT [literature AP from Antarctic krill (Euphausia superba)]
EC50 on HO· [1, 8]: 1530 µg/mL | EC50 on O2−· ([3]; APs from Antarctic krill): 860 µg/mL

GPTGE [literature AP from Spanish mackerel (Scomberomorous niphonius) skin]
EC50 on DPPH· [4, 6]: 1420 µg/mL

NC(=O)CC[C@H](N)C(=O)N[C@@H](CC(=O)O)C(=O)N[C@@H](Cc1ccc(O)cc1)C(=O)N[C@@H](CC(=O)O)C(=O)O [MSP2, Gln-Asp-Tyr-Asp] (H-QDYD-OH)
Declined percentage of O2−· scavenging activity, Treated with Pepsin (pepsin and trypsin): −15.13%

VGGRP [literature AP from grass carp (Ctenopharyngodon idella) skin]
EC50 on HO· ([1]; AP from grass carp (Ctenopharyngodon idella) skin): 2060 µg/mL

GEQSN [literature AP from tuna (Katsuwonus pelamis) cardiac arterial bulbs]
EC50 on O2−· [3, 9]: 1857 µg/mL | EC50 on DPPH· [4, 10]: 2054 µg/mL

SMDV [literature AP from tuna milt (also printed under tuna roes)]
EC50 on ABTS^+· ([2]; APs from tuna milt): 1160 µg/mL

C[C@H](N)C(=O)N[C@@H](CCCNC(=N)N)C(=O)N[C@@H](Cc1c[nH]c2ccccc12)C(=O)O [MSP8, Ala-Arg-Trp] (H-Ala-Arg-Trp-OH)
Declined percentage of O2−· scavenging activity, Treated with Pepsin (pepsin and trypsin): −24.93% | viability of H2O2-injured HepG2 cells (H2O2-damaged HepG2 cells; 8 h, 200 μmol/L): 81.32 ± 2.45%

NCCCC[C@H](NC(=O)CNC(=O)CNC(=O)[C@H](CC(=O)O)NC(=O)[C@@H](N)CC(=O)O)C(=O)O [MSP10, Asp-Asp-Gly-Gly-Lys] (H-DDGGK-OH)
Declined percentage of O2−· scavenging activity, Treated with Pepsin (pepsin and trypsin): −21.98%

N[C@@H](Cc1ccc(O)cc1)C(=O)N[C@@H](CC(=O)O)C(=O)N[C@@H](Cc1ccc(O)cc1)C(=O)N[C@@H](CC(=O)O)C(=O)O [MSP1, Tyr-Asp-Tyr-Asp] (H-YDYD-OH)
viability of H2O2-injured HepG2 cells (H2O2-damaged HepG2 cells; peptide at 200 μmol/L, 8 h pre-incubation, then H2O2 (300 µM) 24 h, MTT, mean ± SD of triplicate, model group 51.08 ± 1.97%): 82.14 ± 3.28%

YWDAW [literature AP from monkfish muscle]
EC50 on HO· ([1]; APs from monkfish muscle): 320 µg/mL | EC50 on O2−· ([3]; APs from monkfish muscle): 480 µg/mL | EC50 on DPPH· ([4]; APs from monkfish muscle): 510 µg/mL

YSKT [literature AP from seaweed (Eucheuma cottonii)]
EC50 on DPPH· [4, 7]: 1710 µg/mL

IDSQ [literature AP from Antarctic krill (Euphausia superba)]
EC50 on HO· [1, 8]: 2570 µg/mL | EC50 on O2−· ([3]; APs from Antarctic krill): 1450 µg/mL

PYFK [literature AP from scalloped hammerhead sharks (Sphyrna lewini) muscle]
EC50 on ABTS^+· ([2]; APs from scalloped hammerhead sharks muscle): 120 µg/mL | EC50 on DPPH· ([4]; APs from scalloped hammerhead sharks (Sphyrna lewini) muscle): 4110 µg/mL

GEGQR [literature AP from tuna (Katsuwonus pelamis) cardiac arterial bulbs]
EC50 on ABTS^+· [2, 9]: 1218 µg/mL | EC50 on O2−· [3, 9]: 2143 µg/mL | EC50 on DPPH· [4, 10]: 2257 µg/mL
